Experimental data reported in article PMC9032233, “2-{5-[(Z,2Z)-2-Chloro-3-(4-nitrophenyl)-2-propenylidene]-4-oxo-2-thioxothiazolidin-3-yl}-3-methylbutanoic Acid as a Potential Anti-Breast Cancer Molecule” (International Journal of Molecular Sciences, 2022).

Columns and labels:
Format in all cases: cell-based, human
[1] = system: MCF-7 cells; test: Annexin V binding assay (flow cytometry), MCF-7; settings: 24 h
Protocol: (§1) The effect of Les-3331 and reference drug on the induction of apoptosis process in human breast cancer cell lines was evaluated using a flow cytometer (BD FACSCanto II, Becton Dickinson Biosciences Systems, San Jose, CA, USA) and Annexin V binding Apoptosis Detection Kit II (BD Biosciences, San Diego, CA, USA). The Les-3331 and reference drug were used in 1 µM and 5 µM concentrations. The test was carried out after 24 h incubation with the tested compounds according to the manufacturer’s protocol and was previously described by our research group. Analysis of the obtained results was performed using FACSDiva software (version 6.1.3, BD Biosciences Systems, San Jose, CA, USA). The equipment was calibrated with BD Cytometer Setup and Tracking Beads (BD Biosciences, San Diego, CA, USA).

[2] = system: MDA-MB-231 cells; test: Annexin V binding assay (flow cytometry), MDA-MB-231; settings: 24 h
Protocol: as §1

[3] = system: MCF-7 cells; test: Mitochondrial membrane potential analysis (JC-1), MCF-7; settings: 24 h
Protocol: (§2) The JC-1 MitoScreen kit (BD Biosciences, San Diego, CA, USA) was used for the mitochondrial membrane potential (ΔΨm) analysis. The assay was performed using a flow cytometer (BD FACSCanto II, Becton Dickinson Biosciences Systems, San Jose, CA, USA). The Les-3331 and reference drug were used in 1 µM and 5 µM concentrations. After 24 h incubation with tested compounds, the assay was performed as described in the literature. Analysis of the obtained results was performed using FACSDiva software (version 6.1.3, BD Biosciences Systems, San Jose, CA, USA). The equipment was calibrated with BD Cytometer Setup and Tracking Beads (BD Biosciences, San Diego, CA, USA).

[4] = system: MDA-MB-231 cells; test: Mitochondrial membrane potential analysis (JC-1), MDA-MB-231; settings: 24 h
Protocol: as §2

[5] = system: caspase-9; test: Caspase-9 concentration in MCF-7 cell lysates (ELISA); settings: 24 h, control 120.913 ng/mL
Protocol: (§3) High sensitivity assay kits (EIAab Science Co., Ltd., Wuhan, China; Abcam plc., Cambridge, United Kingdom; Cloud-Clone Corp., Katy, TX, USA) were used to determine the concentrations of selected proteins in cell lysates after 24 h incubation with novel compound and reference drug in 1 µM and 5 µM concentrations. In brief, after trypsinization, cells were washed thrice with cold PBS and centrifuged at 1000× g for 5 min at 4 °C. Then, cells (1.5 × 10^6) were suspended in lysis buffer for whole-cell lysates. After the second centrifugation, cellular supernatants were frozen immediately at −70 °C. Untreated cancer cells were taken as a control.
(§4) The microtiter plates provided in the kits were pre-coated with an antibody specific to the analyzed antigen. The tests were carried out according to the manufacturer’s protocols.

[6] = system: caspase-9; test: Caspase-9 concentration in MDA-MB-231 cell lysates (ELISA); settings: 24 h, control 65.073 ng/mL
Protocol: as §3, §4

[7] = system: LC3A; test: LC3A concentration in MCF-7 cell lysates (ELISA); settings: 24 h, control 6.726 ng/mL
Protocol: as §3, with “after 24 h incubation with novel compound and reference drug in 1 µM and 5 µM concentrations.” left out
as §4

[8] = system: LC3A; test: LC3A concentration in MDA-MB-231 cell lysates (ELISA); settings: 24 h, control 2.965 ng/mL
Protocol: as §3, with “after 24 h incubation with novel compound and reference drug in 1 µM and 5 µM concentrations.” left out
as §4

[9] = system: LC3B; test: LC3B concentration in MCF-7 cell lysates (ELISA); settings: 24 h, control 1.194 ng/mL
Protocol: as §3, with “after 24 h incubation with novel compound and reference drug in 1 µM and 5 µM concentrations.” left out
as §4

[10] = system: LC3B; test: LC3B concentration in MDA-MB-231 cell lysates (ELISA); settings: 24 h, control 1.504 ng/mL
Protocol: as §3, with “after 24 h incubation with novel compound and reference drug in 1 µM and 5 µM concentrations.” left out
as §4

[11] = system: Beclin-1; test: Beclin-1 concentration in MCF-7 cell lysates (ELISA); settings: 24 h, control 7.965 ng/mL
Protocol: as §3, with “after 24 h incubation with novel compound and reference drug in 1 µM and 5 µM concentrations.” left out
as §4

[12] = system: Beclin-1; test: Beclin-1 concentration in MDA-MB-231 cell lysates (ELISA); settings: 24 h, control 3.605 ng/mL
Protocol: as §3, with “after 24 h incubation with novel compound and reference drug in 1 µM and 5 µM concentrations.” left out
as §4

[13] = system: topoisomerase II; test: Topoisomerase II concentration in MDA-MB-231 cell lysates (ELISA); settings: 24 h, control 2.700 ng/mL
Protocol: as §3, §4

Compound | % of late and early apoptotic cells ([1]; MCF-7, 1 µM) | % of late and early apoptotic cells ([1]; MCF-7, 5 µM) | % of late and early apoptotic cells ([2]; MDA-MB-231, 1 µM) | % of late and early apoptotic cells ([2]; MDA-MB-231, 5 µM) | % of cells with decreased ΔΨm ([3]; MCF-7, 1 µM) | % of cells with decreased ΔΨm ([3]; MCF-7, 5 µM) | % of cells with decreased ΔΨm ([4]; MDA-MB-231, 1 µM) | % of cells with decreased ΔΨm ([4]; MDA-MB-231, 5 µM) | Casp-9 concentration ([5]; 1 µM) | Casp-9 concentration ([5]; 5 µM) | Casp-9 concentration ([6]; MDA-MB-231, 1 µM) | Casp-9 concentration ([6]; MDA-MB-231, 5 µM) | LC3A concentration ([7]; MCF-7, 1 µM) | LC3A concentration ([7]; MCF-7, 5 µM) | LC3A concentration ([8]; MDA-MB-231, 5 µM) | LC3B concentration ([9]; MCF-7, 5 µM) | LC3B concentration ([10]; MDA-MB-231, 1 µM) | LC3B concentration ([10]; MDA-MB-231, 5 µM) | Beclin-1 concentration ([11]; 1 µM) | Beclin-1 concentration ([11]; 5 µM) | other results
COc1cc([C@@H]2c3cc4c(cc3[C@@H](O[C@@H]3O[C@@H]5CO[C@@H](C)O[C@H]5[C@H](O)[C@H]3O)[C@H]3COC(=O)[C@H]23)OCO4)cc(OC)c1O [Etoposide, reference compound] | 10.7% | 10.7% | 4.7% | 7.2% | 10.2% | 18.5% | 11.4% | 15.6% | 154.960 ng/mL | 158.900 ng/mL | 86.953 ng/mL | 93.620 ng/mL | 4.505 ng/mL | 4.582 ng/mL | 1.313 ng/mL | 0.779 ng/mL | 0.784 ng/mL | 0.615 ng/mL | 7.848 ng/mL | 6.686 ng/mL | LC3A concentration ([8]; MDA-MB-231, 1 µM): 2.800 ng/mL; LC3B concentration ([9]; MCF-7, 1 µM): 1.157 ng/mL; Beclin-1 concentration ([12]; MDA-MB-231, 1 µM): 3.442 ng/mL; Beclin-1 concentration ([12]; MDA-MB-231, 5 µM): 3.004 ng/mL; Top II concentration ([13]; MDA-MB-231, 1 µM): 2.175 ng/mL; Top II concentration ([13]; MDA-MB-231, 5 µM): 2.003 ng/mL
CC(C)C(C(=O)O)N1C(=O)/C(=C/C(Cl)=C/c2ccc([N+](=O)[O-])cc2)SC1=S (stereo not shown) [Les-3331, 2-{5-[(Z,2Z)-2-chloro-3-(4-nitrophenyl)-2-propenylidene]-4-oxo-2-thioxothiazolidin-3-yl}-3-methylbutanoic acid] | 6.5% | 40.4% | 5.1% | 18.1% | 9.8% | 25.5% | 21.8% | 36.3% | 150.187 ng/mL | 168.243 ng/mL | 84.300 ng/mL | 92.523 ng/mL | 4.917 ng/mL | 1.127 ng/mL | 1.258 ng/mL | 1.002 ng/mL | 1.178 ng/mL | 0.996 ng/mL | 7.435 ng/mL | 3.948 ng/mL | Beclin-1 concentration ([12]; MDA-MB-231, 1 µM): 3.007 ng/mL; Top II concentration ([13]; MDA-MB-231, 1 µM): 2.508 ng/mL; Top II concentration ([13]; MDA-MB-231, 5 µM): 1.436 ng/mL
